The values that follow come from US10208037B2, “Toll-like receptor-7 and -8 modulatory 1H imidazoquinoline derived compounds” (The University of Kansas, priority 2011, dated 2019).

SMILES strings stand for the structures.

In general, IC50 refers to the concentration at which inhibition is half-maximal. Read a high IC50 as lower potency.

Format in all cases: cell-based
Assay [1] has as its system TLR7 and TLR8-induced cytokine and chemokine release. Put plainly: Inhibition of TLR7- and TLR8-mediated cytokine and chemokine production in human PBMCs. The following applies: hPBMCs. The protocol:
FIGS. 22A-[…] illustrate inhibition of TLR7-mediated (FIGS. 22A-22D) and TLR8-mediated (FIGS. 22E-[…]) proinflammatory cytokine production in human peripheral blood mononuclear cells by chloroquine or 47a. Proinflammatory cytokines were assayed by cytokine bead array methods after incubation of hPBMCs with graded concentrations of the test compound for 12 h in the presence of 10 μg/ml of either CL075 (TLR8 agonist) or gardiquimod (TLR7 agonist). FIGS. 23A-23D illustrate inhibition of TLR7-mediated (FIGS. 23A-23B) and TLR8-mediated (FIGS. 23C-3D) chemokine production in human peripheral blood mononuclear cells by chloroquine or 47a. Chemokines were assayed by cytokine bead array methods after incubation of hPBMCs with graded concentrations of the test compound for 12 h in the presence of 10 μg/ml of either CL075 (TLR8 agonist) or gardiquimod (TLR7 agonist). Aliquots (10^6 cells in 100 μL) of hPBMCs isolated from blood obtained from healthy human donors after informed consent by conventional Ficoll-Hypaque gradient centrifugation were stimulated for 12 h with graded concentrations of test compounds. The supernatant was isolated by centrifugation, diluted 1:20, and cytokines and chemokines were assayed in triplicate using analyte-specific cytokine/chemokine bead array assays as reported by us previously.^74

Assay [2] concerns the target T1, TLR8 (Homo sapiens, UniProt Q9NR97).
T1 construct: expressed in transfected cells; host or cells: HEK293 (HEK-Blue-8 cells)
T1 sequence (Q9NR97 27-1041): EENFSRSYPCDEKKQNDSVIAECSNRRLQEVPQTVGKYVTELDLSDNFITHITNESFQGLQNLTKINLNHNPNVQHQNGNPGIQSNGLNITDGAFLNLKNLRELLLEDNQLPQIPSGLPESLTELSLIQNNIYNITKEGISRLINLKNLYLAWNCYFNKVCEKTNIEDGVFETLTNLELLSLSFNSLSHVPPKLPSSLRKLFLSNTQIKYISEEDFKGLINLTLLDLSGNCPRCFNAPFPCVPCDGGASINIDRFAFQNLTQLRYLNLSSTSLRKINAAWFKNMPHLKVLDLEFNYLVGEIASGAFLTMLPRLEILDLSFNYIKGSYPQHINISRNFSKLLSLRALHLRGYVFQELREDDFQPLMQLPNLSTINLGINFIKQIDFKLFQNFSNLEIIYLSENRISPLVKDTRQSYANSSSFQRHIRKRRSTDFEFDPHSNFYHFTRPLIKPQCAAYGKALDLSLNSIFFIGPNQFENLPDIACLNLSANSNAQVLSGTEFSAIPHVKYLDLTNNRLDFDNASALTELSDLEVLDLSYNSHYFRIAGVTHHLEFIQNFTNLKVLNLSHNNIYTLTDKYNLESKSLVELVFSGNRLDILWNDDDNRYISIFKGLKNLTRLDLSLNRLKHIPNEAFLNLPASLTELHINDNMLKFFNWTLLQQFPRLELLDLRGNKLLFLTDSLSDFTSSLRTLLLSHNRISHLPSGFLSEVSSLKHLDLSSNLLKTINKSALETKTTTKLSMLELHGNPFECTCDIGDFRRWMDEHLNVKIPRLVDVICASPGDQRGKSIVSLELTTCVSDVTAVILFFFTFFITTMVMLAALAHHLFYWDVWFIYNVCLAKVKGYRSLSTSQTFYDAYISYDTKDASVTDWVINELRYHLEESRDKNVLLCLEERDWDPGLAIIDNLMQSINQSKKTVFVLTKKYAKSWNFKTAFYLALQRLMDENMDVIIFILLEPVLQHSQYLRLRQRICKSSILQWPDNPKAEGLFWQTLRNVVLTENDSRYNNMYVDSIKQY
Put plainly: TLR8 reporter gene assay, antagonism (CL075 as agonist). Conditions: for IC50: agonist CL075 1 μg/mL, ND = not detected. The text has this: (§1) The induction of NF-κB was quantified using HEK-Blue-3, HEK-Blue-7 and HEK-Blue-8 cells as previously described by us.^8,24,51 HEK293 cells were stably transfected with human TLR3 (or human TLR7 or human TLR8), MD2, and secreted alkaline phosphatase (sAP), and were maintained in HEK-Blue™ Selection medium containing zeocin and normocin. Stable expression of secreted alkaline phosphatase (sAP) under control of NF-κB/AP-1 promoters is inducible by the TLR3 (or TLR7 or TLR8) agonists, and extracellular sAP in the supernatant is proportional to NF-κB induction. HEK-Blue cells were incubated at a density of ˜10^5 cells/ml in a volume of 80 μl/well, in 384-well, flat-bottomed, cell culture-treated microtiter plates until confluency was achieved, and subsequently graded concentrations of stimuli. sAP was assayed spectrophotometrically using an alkaline phosphatase-specific chromogen (present in HEK-detection medium as supplied by the vendor) at 620 nm.
(§2) Antagonism assays were done as described by us earlier^73 using the following agonists at a constant concentration: TLR3 Poly(I:C) (10 ng/mL); TLR7: gardiquimod (1 μg/mL); TLR8: CL075 (1 μg/mL) mixed with graded concentrations of the test compounds.
In general terms: In a reporter assay the amount or activity of a reporter protein is the signal.

Assay [3] concerns the target T2, TLR7 (Homo sapiens, UniProt Q9NYK1).
T2 construct: expressed in transfected cells; host or cells: HEK293 (HEK-Blue-7 cells)
T2 sequence (Q9NYK1 27-1049): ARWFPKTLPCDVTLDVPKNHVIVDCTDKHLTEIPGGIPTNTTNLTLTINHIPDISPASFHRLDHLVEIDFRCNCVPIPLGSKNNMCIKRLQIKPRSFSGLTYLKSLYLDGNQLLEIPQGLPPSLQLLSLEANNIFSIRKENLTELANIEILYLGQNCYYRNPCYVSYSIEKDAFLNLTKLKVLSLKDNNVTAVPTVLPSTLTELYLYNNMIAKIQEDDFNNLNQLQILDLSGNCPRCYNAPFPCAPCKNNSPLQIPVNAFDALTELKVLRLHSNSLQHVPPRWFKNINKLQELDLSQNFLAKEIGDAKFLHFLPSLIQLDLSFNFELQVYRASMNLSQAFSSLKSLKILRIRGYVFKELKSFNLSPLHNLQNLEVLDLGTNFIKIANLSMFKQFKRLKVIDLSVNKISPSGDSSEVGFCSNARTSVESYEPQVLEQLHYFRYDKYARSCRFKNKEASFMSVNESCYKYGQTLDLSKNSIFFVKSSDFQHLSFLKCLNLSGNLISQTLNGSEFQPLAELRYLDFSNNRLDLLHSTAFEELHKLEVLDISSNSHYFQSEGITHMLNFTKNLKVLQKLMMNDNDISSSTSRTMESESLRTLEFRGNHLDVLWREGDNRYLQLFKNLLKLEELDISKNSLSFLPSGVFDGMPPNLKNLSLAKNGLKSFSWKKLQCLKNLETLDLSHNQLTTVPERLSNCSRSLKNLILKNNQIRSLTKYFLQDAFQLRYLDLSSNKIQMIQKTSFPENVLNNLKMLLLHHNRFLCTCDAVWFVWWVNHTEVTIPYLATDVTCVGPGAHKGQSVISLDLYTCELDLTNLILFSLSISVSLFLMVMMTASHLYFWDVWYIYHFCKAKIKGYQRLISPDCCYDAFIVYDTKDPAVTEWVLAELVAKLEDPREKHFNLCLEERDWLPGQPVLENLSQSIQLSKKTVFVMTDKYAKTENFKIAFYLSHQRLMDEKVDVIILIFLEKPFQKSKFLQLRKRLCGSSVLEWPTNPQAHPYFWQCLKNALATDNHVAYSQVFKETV
Put plainly: TLR7 reporter gene assay, antagonism (gardiquimod as agonist).
Description: as §1, §2

The target of assay [4] is T2, TLR7. Put plainly: TLR7 reporter gene assay (NF-κB induction, HEK-Blue-7 cells), agonism. Conditions: Table 1; ND = not detected; read-out: TLR7 Agonism.
Description: (§3) NF-κB induction: The induction of NF-κB was quantified using HEK-Blue-7 cells and HEK-Blue-8 cells as previously described by us.^8,24 HEK293 cells were stably transfected with human TLR7 (or human TLR8), MD2, and secreted alkaline phosphatase (sAP), and were maintained in HEK-Blue™ Selection medium containing zeocin and normocin. Stable expression of secreted alkaline phosphatase (sAP) under control of NF-κB/AP-1 promoters is inducible by the TLR7 (or TLR8) agonists, and extracellular sAP in the supernatant is proportional to NF-κB induction. HEK-Blue cells were incubated at a density of […] in a volume of 80 μL/well, in 384-well, flat-bottomed, cell culture-treated microtiter plates until confluency was achieved, and subsequently graded concentrations of stimuli. sAP was assayed spectrophotometrically using an alkaline phosphatase-specific chromogen (present in HEK-detection medium as supplied by the vendor) at 620 nm.
as §1

In assay [5] the target is T1, TLR8. Put plainly: TLR8 reporter gene assay (NF-κB induction, HEK-Blue-8 cells), agonism.
Description: as §3, §1

For the compound `CCN(CC)CCCC(C)Nc1ccnc2cc(Cl)ccc12` (stereo not shown) [Chloroquine, reference compound], the “Inhibition of TNF-α and IL-1β production (in words)” value in assay [1] is recorded as “feeble inhibitor”.
For `Nc1nc2ccccc2c2c1nc(CCCCc1nc3c(N)nc4ccccc4c3n1Cc1ccccc1)n2Cc1ccccc1` [Compound 47b, 2,2′-(butane-1,4-diyl)bis(1-benzyl-1H-imidazo[4,5-c]quinolin-4-amine)], at TLR8 [2], the “TLR8 antagonistic activity (in words)” value is “potent antagonistic activity” and the IC50 was found to be 15.6 µM. Also, the “TLR7 antagonistic activity (in words)” value at TLR7 [3] is “potent antagonistic activity”.
With `Nc1nc2ccccc2c2c1nc(CCCCCCc1nc3c(N)nc4ccccc4c3n1Cc1ccccc1)n2Cc1ccccc1` [Compound 49a, 2,2′-(hexane-1,6-diyl)bis(1-benzyl-1H-imidazo[4,5-c]quinolin-4-amine)], on TLR8 [2], the “TLR8 antagonistic activity (in words)” value is recorded as “potent antagonistic activity” and the IC50 was found to be 10.9 µM. Besides, the “TLR7 antagonistic activity (in words)” value on TLR7 [3] was “potent antagonistic activity”.
On to `Nc1nc2ccccc2c2c1nc(CCCCCCCCCCc1nc3c(N)nc4ccccc4c3n1Cc1ccccc1)n2Cc1ccccc1` [Compound 49b, 2,2′-(decane-1,10-diyl)bis(1-benzyl-1H-imidazo[4,5-c]quinolin-4-amine)], for which the “TLR8 antagonistic activity (in words)” value on TLR8 [2] is reported as “potent antagonistic activity”. In addition, the IC50 on TLR8 [2] stood at 4.65 µM; on TLR7 [3] (agonist gardiquimod 1 μg/mL, ND = not detected) it was 17.9 µM. The “TLR7 antagonistic activity (in words)” value on TLR7 [3] is “potent antagonistic activity”.
In the case of `CCCCc1nc2c(N)nc3ccc(NC(=O)CCCCCCCCCCC(=O)Nc4ccc5nc(N)c6nc(CCCC)n(Cc7ccc(CN)cc7)c6c5c4)cc3c2n1Cc1ccc(CN)cc1` [Compound 55c, N^1,N^12-bis(4-amino-1-(4-(aminomethyl)benzyl)-2-butyl-1H-imidazo[4,5-c]quinolin-8-yl) dodecanediamide], the EC50 on TLR7 [4] was determined as 5.4 µM. Moreover, the “TLR8-agonistic activity (in words)” value at TLR8 [5] is recorded as “dual TLR7/TLR8 activity”.
